# In patent US20240083885A1, “COMPOSITIONS AND METHODS FOR INHIBITING M PRO PROTEASE ACTIVITY AND FOR PREVENTING AND TREATING SARS-COV-2 INFECTION” (priority 2020, published 2024):
# Where two headings read alike, the source gives them in different places.
# Key:
# SARS-CoV-2 M^pro = SARS-CoV-2 M^pro (Severe acute respiratory syndrome coronavirus 2 (2019-nCoV) (SARS-CoV-2), UniProt P0DTD1); test: biochemical
# SARS-CoV-2 = test: microbe, parasite or virus in culture; assay type: cell-based
# Vero E6 cells = test: Cytotoxicity in Vero E6 cells (neutral red uptake); details: read-out: CC50 in Vero E6 cells
# in vitro = details: African green monkey
# [1] = Severe acute respiratory syndrome coronavirus 2, Vero C1008; read-out: SARS-COV-2 antiviral activity using immunofluorescence assay EC50
# [2] = read-out: IC50 against SARS-CoV-2 M^pro
# [3] = read-out: SARS-COV-2 main protease enzymatic inhibition IC50
# [4] = SARS-COV-2 main protease enzymatic inhibition IC50
# [5] = Severe acute respiratory syndrome coronavirus 2, Vero C1008; Vero E6 cells, immunofluorescence assay; read-out: SARS-CoV-2 antiviral assay EC50
# [6] = Severe acute respiratory syndrome coronavirus 2, Vero C1008; read-out: antiviral EC50 against SARS-CoV-2 in Vero E6 cells
# [7] = read-out: SARS-CoV-2 M^pro IC50
smiles,measurement,setting,value
"C[C@H](NC(=O)C(c1cccnc1)N(C(=O)c1ccco1)c1ccc(-c2ccccc2)cc1)c1ccccc1 (single isomer, unassigned) [Compound 23S]",IC50,SARS-CoV-2 M^pro; IC50 against SARS-CoV-2 M^pro,> 10 µM
same,IC50,SARS-CoV-2 M^pro; SARS-CoV-2 M^pro IC50 (μM),> 10 µM
"C[C@H](NC(=O)C(c1cccnc1)N(C(=O)c1ccco1)c1ccc(-c2ccccc2)cc1)c1ccccc1 (single isomer, unassigned) [Jun8-76-3B]",EC50,"SARS-CoV-2 M^pro; SARS-COV-2 main protease enzymatic inhibition (separated diastereomers, printed as EC50)",1.35 µM
same,EC50,SARS-CoV-2; [1],2.97 µM
C[C@H](NC(=O)C(c1cccnc1)N(C(=O)c1ccno1)c1ccc(-c2ccccc2)cc1)c1ccccc1 (some centres unmarked) [Compound 25],IC50,SARS-CoV-2 M^pro; [2],2.47 ± 0.27 µM
same,CC50,Vero E6 cells,> 100 µM
CC(C)(C)NC(=O)C(c1cnccn1)N(C(=O)c1ccco1)c1ccc(C(C)(C)C)cc1 (centres unmarked) [Compound 27],CC50,Vero E6 cells,> 100 µM
C[C@H](NC(=O)C(c1cccnc1)N(C(=O)c1ccno1)c1ccc(C2CCCCC2)cc1)c1ccccc1 (some centres unmarked) [Compound 36],IC50,SARS-CoV-2 M^pro; [2],0.81 ± 0.24 µM
O=C(NCC(c1ccccc1)c1ccccc1)C(c1cccnc1)N(C(=O)c1ccco1)c1ccc(-c2ccccc2)cc1 (centres unmarked) [Compound 39],IC50,SARS-CoV-2 M^pro; IC50 against SARS-CoV-2 M^pro,< 5 µM
same,CC50,Vero E6 cells,> 100 µM
C[C@H](NC(=O)C(c1cccnc1)N(C(=O)c1ccco1)c1ccc(C(C)(C)C)cc1)c1ccccc1 (some centres unmarked) [Jun8-56-1],IC50,SARS-CoV-2 M^pro; [3],5.7 µM
same,EC50,SARS-CoV-2; [1],17.2 µM
CC(C)(C)c1ccc(N(C(=O)c2ccco2)C(C(=O)NC2CC2)c2cccnc2)cc1 (centres unmarked) [Jun8-58-2],IC50,SARS-CoV-2 M^pro; [3],3.86 µM
C[C@H](NC(=O)C(c1cccnc1)N(C(=O)c1ccco1)c1ccc(C2CCCCC2)cc1)c1ccccc1 (some centres unmarked) [Jun8-66-1],IC50,SARS-CoV-2 M^pro; [3],0.51 µM
CC(C)(C)c1ccc(N(C(=O)c2ccco2)C(C(=O)NCn2nnc3ccccc32)c2cccnc2)cc1 (centres unmarked) [Jun8-74-1],IC50,SARS-CoV-2 M^pro; [3],8.13 µM
C[C@H](NC(=O)C(c1cccnc1)N(C(=O)c1ccco1)c1ccc([Si](C)(C)C)cc1)c1ccccc1 (some centres unmarked) [Jun8-75-2],IC50,SARS-CoV-2 M^pro; [3],1.97 µM
same,EC50,"SARS-CoV-2; Severe acute respiratory syndrome coronavirus 2, Vero C1008, read-out: SARS-COV-2 antiviral activity using immunofluorescence assay EC50",8.84 µM
C[C@H](NC(=O)C(c1cccnc1)N(C(=O)c1ccco1)c1ccc(-c2ccccc2)cc1)c1ccccc1 (some centres unmarked) [Jun8-76-3],IC50,SARS-CoV-2 M^pro; IC50 against SARS-CoV-2 M^pro,< 3 µM
same,IC50,SARS-CoV-2 M^pro; [4],0.31 µM
same,IC50,SARS-CoV-2 M^pro; SARS-CoV-2 M^pro IC50 (μM),0.31 ± 0.13 µM
same,EC50,SARS-CoV-2; [5],1.61 ± 0.29 µM
same,EC50,SARS-CoV-2; [1],1.83 µM
same,EC50,SARS-CoV-2; [6],0.82 to 4.54 µM
same,CC50 at 5 days,in vitro; Vero E6 Cytotoxicity CC50 (μM),> 200 µM
same,CC50,Vero E6 cells,> 100 µM
C[C@H](NC(=O)C(c1cccnc1)N(C(=O)c1ccco1)c1ccc(-n2cccc2)cc1)c1ccccc1 (some centres unmarked) [Jun8-76-5],IC50,SARS-CoV-2 M^pro; IC50 against SARS-CoV-2 M^pro,< 3 µM
same,IC50,SARS-CoV-2 M^pro; [3],0.94 µM
same,IC50,SARS-CoV-2 M^pro; [7],0.94 ± 0.33 µM
same,Selectivity index SI CC50/EC50,SARS-CoV-2,>115.6
same,EC50,SARS-CoV-2; [5],1.73 ± 0.19 µM
same,EC50,SARS-CoV-2; [1],1.9 µM
same,EC50,SARS-CoV-2; [6],0.82 to 4.54 µM
same,CC50 at 5 days,in vitro; Vero E6 Cytotoxicity CC50 (μM),> 200 µM
same,CC50,Vero E6 cells,> 100 µM
CC(C)NC(=O)C(c1cccnc1)N(C(=O)c1ccco1)c1ccc(C(C)(C)C)cc1 (centres unmarked) [Jun8-88-1],IC50,SARS-CoV-2 M^pro; [3],5.37 µM
CC(C)(C)c1ccc(N(C(=O)c2ccco2)C(C(=O)NC2CCCC2)c2cccnc2)cc1 (centres unmarked) [Jun8-88-2],IC50,SARS-CoV-2 M^pro; [3],2.51 µM
same,EC50,SARS-CoV-2; [1],12.9 µM
C[C@H](NC(=O)C(c1cccnc1)N(C(=O)c1c[nH]cn1)c1ccc(-c2ccccc2)cc1)c1ccccc1 (some centres unmarked) [Jun8-90-3],IC50,SARS-CoV-2 M^pro; [7],0.96 ± 0.09 µM
same,EC50,SARS-CoV-2; [6],0.82 to 4.54 µM
same,CC50 at 5 days,in vitro; Vero E6 Cytotoxicity CC50 (μM),129 ± 25.1 µM
same,CC50,Vero E6 cells,> 100 µM
C[C@H](NC(=O)C(c1cccnc1)N(C(=O)c1ccco1)c1ccc(-c2cccs2)cc1)c1ccccc1 (some centres unmarked) [Jun8-91-4],IC50,SARS-CoV-2 M^pro; [4],14.6 µM
C[C@H](NC(=O)C(c1cccnc1)N(C(=O)c1ccco1)c1ccc(-c2ccco2)cc1)c1ccccc1 (some centres unmarked) [Jun8-91-5],IC50,SARS-CoV-2 M^pro; [3],2.54 µM
C[C@H](NC(=O)C(c1cccnc1)N(C(=O)c1ccco1)c1ccc(-c2cnn(C)c2)cc1)c1ccccc1 (some centres unmarked) [Jun8-91-6],IC50,SARS-CoV-2 M^pro; [4],37.3 µM
C[C@H](NC(=O)C(c1cccnc1)N(C(=O)c1cnco1)c1ccc(-c2ccccc2)cc1)c1ccccc1 (some centres unmarked) [Jun8-92-2],IC50,SARS-CoV-2 M^pro; [3],4.99 µM
C[C@H](NC(=O)C(c1cccnc1)N(C(=O)c1ccco1)c1ccc(Cc2ccccc2)cc1)c1ccccc1 (some centres unmarked) [Jun8-92-4],IC50,SARS-CoV-2 M^pro; [3],35.1 µM
C[C@H](NC(=O)C(c1cccnc1)N(C(=O)c1ccco1)c1ccc(N2CCCCC2)cc1)c1ccccc1 (some centres unmarked) [Jun8-97-1],IC50,SARS-CoV-2 M^pro; [3],5.46 µM
O=C(NC1CCCCC1)C(c1cccnc1)N(C(=O)c1ccco1)c1ccc(-c2ccccc2)cc1 (centres unmarked) [Jun9-3-3],IC50,SARS-CoV-2 M^pro; [3],2.68 µM
O=C(NC1CCCC1)C(c1cccnc1)N(C(=O)c1c[nH]cn1)c1ccc(-c2ccccc2)cc1 (centres unmarked) [Jun9-3-5],IC50,SARS-CoV-2 M^pro; [3],7.27 µM
O=C(NC1CCCCC1)C(c1cccnc1)N(C(=O)c1c[nH]cn1)c1ccc(-c2ccccc2)cc1 (centres unmarked) [Jun9-4-2],IC50,SARS-CoV-2 M^pro; [3],5.82 µM
C[C@H](NC(=O)C(c1cnccn1)N(C(=O)c1ccco1)c1ccc(-c2ccccc2)cc1)c1ccccc1 (some centres unmarked) [Jun9-4-4],IC50,SARS-CoV-2 M^pro; [2],0.28 ± 0.07 µM
same,Selectivity index SI CC50/EC50,SARS-CoV-2,>243.9
same,EC50,SARS-CoV-2; [5],0.82 ± 0.56 µM
same,EC50,SARS-CoV-2; [1],1.43 µM
same,EC50,SARS-CoV-2; [6],0.82 to 4.54 µM
same,CC50 at 5 days,in vitro; Vero E6 Cytotoxicity CC50 (μM),> 200 µM
same,CC50,Vero E6 cells,> 100 µM
O=C(NCC(c1ccccc1)c1ccccc1)C(c1cccnc1)N(C(=O)c1ccco1)c1ccc(-c2ccccc2)cc1 (centres unmarked) [Jun9-5-3],IC50,SARS-CoV-2 M^pro; [3],1.48 µM
C[C@H](NC(=O)C(c1cccnc1)N(C(=O)c1ccco1)c1ccc(OC(C)(C)C)cc1)c1ccccc1 (some centres unmarked) [Jun9-5-4],IC50,SARS-CoV-2 M^pro; [3],21.9 µM
C[C@H](NC(=O)C(c1cccnc1)N(C(=O)c1ccco1)c1ccc(-c2ccccn2)cc1)c1ccccc1 (some centres unmarked) [Jun9-6-4],IC50,SARS-CoV-2 M^pro; [3],1.81 µM
CC(C)(C)NC(=O)C(c1cnccn1)N(C(=O)c1ccco1)c1ccc(C(C)(C)C)cc1 (centres unmarked) [Jun9-17-2],IC50,SARS-CoV-2 M^pro; [3],4.93 µM
"C[C@H](NC(=O)[C@H](c1cccnc1)N(C(=O)C(Cl)Cl)c1ccc(-c2ccccc2)cc1)c1ccccc1 [Jun9-62-2S, N-([1,1′-biphenyl]-4-yl)-2,2-dichloro-N-((S)-2-oxo-2-(((S)-1-phenylethyl)amino)-1-(pyridin-3-yl)ethyl)acetamide]",IC50,SARS-CoV-2 M^pro; IC50 against SARS-CoV-2 M^pro,> 20 µM
CC(C)(C)c1ccc(N(C(=O)c2ccco2)C(C(=O)Nc2ccc(F)cc2)c2cccnc2)cc1 (centres unmarked) [Jun9-88-3],IC50,SARS-CoV-2 M^pro; [3],7.81 µM
COc1ccc(NC(=O)C(c2cccnc2)N(C(=O)c2ccco2)c2ccc(C(C)(C)C)cc2)cc1 (centres unmarked) [Jun9-88-4],IC50,SARS-CoV-2 M^pro; [3],7.49 µM
"C[C@H](NC(=O)[C@H](c1cccnc1)N(C(=O)C(Br)(Br)Br)c1ccc(-c2ccccc2)cc1)c1ccccc1 [Jun9-88-6S, N-([1,1′-biphenyl]-4-yl)-2,2,2-tribromo-N-((S)-2-oxo-2-(((S)-1-phenylethyl)amino)-1-(pyridin-3-yl)ethyl)acetamide]",IC50,SARS-CoV-2 M^pro; [2],7.16 µM
same,CC50 at 5 days,in vitro; CC50 in Vero E6 cells,5.99 µM
"C[C@H](NC(=O)[C@H](c1cccnc1)N(C(=O)C(Br)Br)c1ccc(-c2ccccc2)cc1)c1ccccc1 [Jun9-89-2S, N-([1,1′-biphenyl]-4-yl)-2,2-dibromo-N-((S)-2-oxo-2-(((S)-1-phenylethyl)amino)-1-(pyridin-3-yl)ethyl)acetamide]",IC50,SARS-CoV-2 M^pro; IC50 against SARS-CoV-2 M^pro,2.44 µM
same,CC50 at 5 days,in vitro; CC50 in Vero E6 cells,4.57 µM
"C[C@H](NC(=O)C(c1cccnc1)N(C(=O)C(Cl)(Cl)Br)c1ccc(-c2ccccc2)cc1)c1ccccc1 (stereo partly drawn) [Jun9-89-3, N-([1,1′-biphenyl]-4-yl)-2-bromo-2,2-dichloro-N-(2-oxo-2-(((S)-1-phenylethyl)amino)-1-(pyridin-3-yl)ethyl)acetamide]",IC50,SARS-CoV-2 M^pro; [2],1.2 µM
same,CC50 at 5 days,in vitro; CC50 in Vero E6 cells,32.4 µM
"C[C@H](NC(=O)[C@H](c1cccnc1)N(C(=O)C(Cl)(Br)Br)c1ccc(-c2ccccc2)cc1)c1ccccc1 [Jun9-89-4S, N-([1,1′-biphenyl]-4-yl)-2,2-dibromo-2-chloro-N-((S)-2-oxo-2-(((S)-1-phenylethyl)amino)-1-(pyridin-3-yl)ethyl)acetamide]",IC50,SARS-CoV-2 M^pro; [2],9.04 µM
"C[C@H](NC(=O)[C@H](c1cccnc1)N(C(=O)C(Cl)Cl)c1ccc(-c2ccccc2)cc1)c1ccc(Br)cc1 [Jun9-90-3S, N-([1,1′-biphenyl]-4-yl)-N-((S)-2-(((S)-1-(4-bromophenyl)ethyl)amino)-2-oxo-1-(pyridin-3-yl)ethyl)-2,2-dichloroacetamide]",IC50,SARS-CoV-2 M^pro; IC50 against SARS-CoV-2 M^pro,> 20 µM
"C[C@@H](CCc1ccccc1)NC(=O)[C@H](c1cccnc1)N(C(=O)C(Cl)Cl)c1ccc(-c2ccccc2)cc1 [Jun9-90-4S, N-([1,1′-biphenyl]-4-yl)-2,2-dichloro-N-((S)-2-oxo-2-(((S)-4-phenylbutan-2-yl)amino)-1-(pyridin-3-yl)ethyl)acetamide]",IC50,SARS-CoV-2 M^pro; IC50 against SARS-CoV-2 M^pro,> 20 µM
"C=C(Cl)C(=O)N(c1ccc(-c2ccccc2)cc1)C(C(=O)N[C@@H](C)c1ccccc1)c1cccnc1 (stereo partly drawn) [Jun10-38-2, N-{[1,1′-biphenyl]-4-yl}-2-chloro-N-({[(1S)-1-phenylethyl]carbamoyl}(pyridin-3-yl)methyl)prop-2-enamide]",IC50,SARS-CoV-2 M^pro; [2],4.22 µM
